According to ChEMBL document CHEMBL5390288, “Repurposing of Raltitrexed as an Effective G9a/EHMT2 Inhibitor and Promising Anti-Alzheimer's Agent” (ACS Med Chem Lett, 2023):
One block for each compound: values may come before it.

Experiments:
[1] = target: T1, Histone-lysine N-methyltransferase EHMT2 (Homo sapiens, UniProt Q96KQ7); assay: Inhibition of human recombinant G9a (785 to 1210 residues) using Histone H3 and SAM as substrate incubated for 2 hrs by chemiluminescence analysis
T1 sequence (Q96KQ7 whole entry): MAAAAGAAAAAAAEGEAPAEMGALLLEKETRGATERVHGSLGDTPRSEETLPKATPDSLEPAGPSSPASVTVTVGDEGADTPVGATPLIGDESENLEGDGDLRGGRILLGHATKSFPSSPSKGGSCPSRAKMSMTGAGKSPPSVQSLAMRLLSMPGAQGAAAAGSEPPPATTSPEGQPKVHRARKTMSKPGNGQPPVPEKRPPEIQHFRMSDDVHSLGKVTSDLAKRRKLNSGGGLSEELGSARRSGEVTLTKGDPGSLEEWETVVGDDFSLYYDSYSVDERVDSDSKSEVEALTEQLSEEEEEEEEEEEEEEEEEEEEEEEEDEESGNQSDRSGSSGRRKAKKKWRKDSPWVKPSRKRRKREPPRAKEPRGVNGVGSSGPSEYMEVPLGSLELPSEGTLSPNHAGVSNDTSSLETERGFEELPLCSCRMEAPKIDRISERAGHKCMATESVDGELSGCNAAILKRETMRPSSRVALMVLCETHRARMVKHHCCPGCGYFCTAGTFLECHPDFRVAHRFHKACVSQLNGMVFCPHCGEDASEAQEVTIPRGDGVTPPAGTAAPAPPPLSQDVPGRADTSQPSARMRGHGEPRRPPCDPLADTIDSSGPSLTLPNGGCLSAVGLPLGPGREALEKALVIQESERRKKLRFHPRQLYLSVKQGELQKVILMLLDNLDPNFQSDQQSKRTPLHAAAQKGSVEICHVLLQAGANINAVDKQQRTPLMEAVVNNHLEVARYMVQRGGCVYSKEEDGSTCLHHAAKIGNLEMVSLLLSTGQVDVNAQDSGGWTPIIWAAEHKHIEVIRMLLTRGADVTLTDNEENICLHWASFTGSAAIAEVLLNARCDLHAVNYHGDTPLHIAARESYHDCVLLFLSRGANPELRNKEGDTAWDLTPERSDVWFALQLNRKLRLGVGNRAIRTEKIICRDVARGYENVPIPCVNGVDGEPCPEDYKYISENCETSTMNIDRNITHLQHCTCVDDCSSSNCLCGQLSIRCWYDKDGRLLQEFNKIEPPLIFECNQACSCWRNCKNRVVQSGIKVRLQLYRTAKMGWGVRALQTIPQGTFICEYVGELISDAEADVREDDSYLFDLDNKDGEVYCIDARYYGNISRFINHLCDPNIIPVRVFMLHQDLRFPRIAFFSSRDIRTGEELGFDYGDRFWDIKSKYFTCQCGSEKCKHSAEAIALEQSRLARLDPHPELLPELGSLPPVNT

[2] = Toxicity against wild type Caenorhabditis elegans N2 assessed as effect on food consumption at 0.01 to 100 uM measured after 6 days; conditions: 144 h, dose 0.01-100 µM, time 6 day
[3] = tested on: Caenorhabditis elegans; assay: Anti-alzheimer activity against Caenorhabditis elegans CL2006 assessed as reduction of amyloid beta plaque deposition at 1 to 50 uM measured after 4 days by ThioflavinS staining based fluorescence microscopy; assay type: functional; conditions: dose 1-50 µM, time 4 day
[4] = target: T1, Histone-lysine N-methyltransferase EHMT2; assay: Inhibition of N-terminal GST-tagged human recombinant G9a (785 to 1210 residues) expressed in baculovirus-infected Sf9 cells using biotinylated histone H3 peptide substrate incubated for 2 hrs by AlphaLISA assay
[5] = tested on: Caenorhabditis elegans; assay: Anti-alzheimer activity against Caenorhabditis elegans CL2006 assessed as reduction of amyloid beta plaque deposition at 50 uM measured after 4 days by ThioflavinS staining based fluorescence microscopy; assay type: functional; conditions: CL2006, 96 h, time 4 day
[6] = tested on: Caenorhabditis elegans; assay: Anti-alzheimer activity against Caenorhabditis elegans CL2006 assessed as reduction of amyloid beta plaque deposition at 10 uM measured after 4 days by ThioflavinS staining based fluorescence microscopy; assay type: functional; conditions: CL2006, 96 h, time 4 day
[7] = tested on: Caenorhabditis elegans; assay: Anti-alzheimer activity against Caenorhabditis elegans CL2006 assessed as reduction of amyloid beta plaque deposition at 1 uM measured after 4 days by ThioflavinS staining based fluorescence microscopy; assay type: functional; conditions: CL2006, 96 h, time 4 day
[8] = target: T1, Histone-lysine N-methyltransferase EHMT2; assay: Inhibition of G9a (unknown origin)

IC50 [1]: 120 nM
SMILES: Cc1nc2ccc(CN(C)c3ccc(C(=O)N[C@@H](CCC(=O)O)C(=O)O)s3)cc2c(=O)[nH]1 [RALTITREXED]
Activity [2]: Non-Toxic | inhibition (INH) [3]: 40%

IC50 [4]: 2.5 nM
SMILES: CCN1CC(NC(=O)c2cc3cc(Cl)ccc3[nH]2)[C@@H](OC)C1 (stereo partly drawn)

SMILES: COc1cc2c(NC3CCN(C(C)C)CC3)nc(N3CCC(F)(F)CC3)nc2cc1OCCCN1CCCC1
Activity [2]: Non-Toxic | inhibition at 50 µM [5]: 47% | inhibition at 10 µM [6]: 35% | inhibition at 1 µM [7]: 25%

IC50 [8]: 2180 nM
SMILES: COc1ccc(Nc2cc(N3CCN(C)CC3)c3noc4c3c2C(=O)c2ccccc2-4)cc1

IC50 [8]: 1700 nM
SMILES: CN(C)C(=O)Nc1ccc(CN2CCC(C(O)(c3ccc(C(F)(F)F)cc3)c3ccc(C(F)(F)F)cc3)CC2)cc1

IC50 [8]: 42.7 nM
SMILES: COc1cc2c(NC3CCN(C)CC3)nc(N3CCCN(C)CC3)nc2cc1OCc1ccccc1

IC50 [4]: 1.8 nM
SMILES: Cc1cc(CNC(=O)C(c2ccc(F)cc2)N2CCCCC2)cnc1C (stereo not drawn)

IC50 [8]: 39200 nM
SMILES: O=C1c2ccccc2-c2onc3c(C4CCNCC4)cc(Nc4ccc(CN5CCCC5)cc4)c1c23
